Laboratory results published in US7816134B2, “Method of extensive culture of antigen-specific cytotoxic T cells” (Takara Bio Inc., priority 2000, dated 2010).
Read-outs that look alike come from different tables or passages of the source.

Legend:
[1] = system: HLA-A2.1-having EBV transformed B-cells (221A2.1); conditions: FluMPA2.1
[2] = system: HLA-A2.1-having EBV transformed B-cells (221A2.1); conditions: for Cytotoxic Activity (%) E/T Ratio 3 / Cytotoxic Activity (%) E/T Ratio 10 / Cytotoxic Activity (%) E/T Ratio 2.5 / Cytotoxic Activity (%) E/T Ratio 5 / Cytotoxic Activity (%) E/T Ratio 1: FluMPA2.1
[3] = system: anti-influenza virus memory CTLs (FluMPA2.1); assay type: cell-based, human
[4] = system: HLA-A2.1-having EBV transformed B-cells (221A2.1); experiment: Cytotoxic activity of anti-tumor-associated antigen(MAGE3)-specific CTLs on the thirty-fifth day after the initiation of induction; conditions: 10 μg/ml
[5] = system: HLA-A2.1-having EBV transformed B-cells (221A2.1); experiment: Specific cytotoxic activity of MAGE3-specific CTLs after expansion; assay type: cell-based, human; conditions: for Cytotoxic Activity (%): sample induction +, expansion +
Description: (§1) CTLs prepared in item (1) of Example 2-1 were washed with 5HRPMI, and then made into a suspension having a concentration of 5×10^4 cells/ml. On the other hand, allogenic PBMCs not having HLA-A24 and HLA-A2.1 which were collected in the same manner as in item (1) of Example 1-1 were subjected to X-ray irradiation (3300R), and the cells were washed with the medium and then made into a suspension having a concentration of 5×10^6 cells/ml. These CTLs (2.5×10^4 cells) and allogenic PBMCs (1.25×10^7 cells) were suspended in 10 ml of 5HRPMI, and anti-CD3 antibody (manufactured by Janssen-Kyowa) was further added thereto so as to give a final concentration of 50 ng/ml. The mixture was placed into a flask of 12.5 cm^2 (manufactured by Falcon), and the cells were cultured in a wet-type CO2 incubator at 37° C. for 14 days. […] The expansion ratio (× times ratio) was calculated by dividing the cell count after the expansion by the cell count before the expansion.

[6] = system: anti-tumor-associated antigen(MAGE3)-specific CTLs; experiment: Expansion ratio of MAGE3-specific CTLs; assay type: cell-based, human; conditions: sample 10 μg/ml: induction +, 14 days
Description: as §1

[7] = Example 2-4, sample 10 μg/ml during CTL induction +, during expansion +, peptide addition +
[8] = Example 2-4, sample 10 μg/ml during CTL induction +, during expansion +, peptide addition −
[9] = Example 2-6, sample during CTL induction −, during expansion + (10 μg/ml), peptide addition +
[10] = Example 2-6, sample during CTL induction −, during expansion + (10 μg/ml), peptide addition −
[11] = Example 2-7, sample 10 μg/ml during CTL induction +, during expansion +, peptide addition +
[12] = Example 2-7, sample 10 μg/ml during CTL induction +, during expansion +, peptide addition −
[13] = Example 2-7, sample 10 μg/ml during CTL induction +, during expansion −, peptide addition +
[14] = Example 2-7, sample 10 μg/ml during CTL induction +, during expansion −, peptide addition −
[15] = Example 1-3, sample 10 μg/ml during CTL induction +, during culture with IL-2 +, peptide addition +
[16] = Example 1-3, sample 10 μg/ml during CTL induction +, during culture with IL-2 +, peptide addition −
[17] = Example 1-5, sample during CTL induction −, during culture with IL-2 + (10 μg/ml), peptide addition +
[18] = Example 1-5, sample during CTL induction −, during culture with IL-2 + (10 μg/ml), peptide addition −
[19] = sample 10 μg/ml during CTL induction and during continuous culture, 10 to 14 days
[20] = sample 10 μg/ml only during continuous culture
[21] = Example 2-4, sample 10 μg/ml during CTL induction +, during expansion +
[22] = Example 2-6, sample during CTL induction −, during expansion + (10 μg/ml)
[23] = Example 1-4, sample 10 μg/ml during CTL induction +, during culture with IL-2 +, peptide addition +
[24] = Example 1-4, sample 10 μg/ml during CTL induction +, during culture with IL-2 +, peptide addition −

## Ardeparin sodium [L. M. W. Heparin, reference compound]
[1]; [7]
  Cytotoxic Activity (%) E/T Ratio 3: 56.4%
  Cytotoxic Activity (%) E/T Ratio 10: 92.9%
[1]; [8]
  Cytotoxic Activity (%) E/T Ratio 3: 5.2%
  Cytotoxic Activity (%) E/T Ratio 10: 19.6%
[1]; [9]
  Cytotoxic Activity (%) E/T Ratio 1: 11.3%
  Cytotoxic Activity (%) E/T Ratio 3: 22.2%
  Cytotoxic Activity (%) E/T Ratio 10: 43.9%
  Cytotoxic Activity (%) E/T Ratio 30: 71.2%
[1]; [10]
  Cytotoxic Activity (%) E/T Ratio 1: 1.4%
  Cytotoxic Activity (%) E/T Ratio 3: 0%
  Cytotoxic Activity (%) E/T Ratio 10: 0.6%
  Cytotoxic Activity (%) E/T Ratio 30: 2.5%
[1]; [11]
  Cytotoxic Activity (%) E/T Ratio 1: 16.3%
  Cytotoxic Activity (%) E/T Ratio 3: 22.7%
  Cytotoxic Activity (%) E/T Ratio 10: 43.9%
  Cytotoxic Activity (%) E/T Ratio 30: 72.8%
[1]; [12]
  Cytotoxic Activity (%) E/T Ratio 1: 5.6%
  Cytotoxic Activity (%) E/T Ratio 3: 2.5%
  Cytotoxic Activity (%) E/T Ratio 10: 1.1%
  Cytotoxic Activity (%) E/T Ratio 30: 0.9%
[1]; [13]
  Cytotoxic Activity (%) E/T Ratio 1: 12.5%
  Cytotoxic Activity (%) E/T Ratio 3: 26.9%
  Cytotoxic Activity (%) E/T Ratio 10: 57.8%
  Cytotoxic Activity (%) E/T Ratio 30: 83.7%
[1]; [14]
  Cytotoxic Activity (%) E/T Ratio 1: 5.2%
  Cytotoxic Activity (%) E/T Ratio 3: 4.5%
  Cytotoxic Activity (%) E/T Ratio 10: 6.6%
  Cytotoxic Activity (%) E/T Ratio 30: 7.0%
[2]; [15]
  Cytotoxic Activity (%) E/T Ratio 3: 49.0%
  Cytotoxic Activity (%) E/T Ratio 10: 71.7%
[2]; [16]
  Cytotoxic Activity (%) E/T Ratio 3: 11.7%
  Cytotoxic Activity (%) E/T Ratio 10: 14.2%
[2]; [17]
  Cytotoxic Activity (%) E/T Ratio 10: 18.3%
[2]; [18]
  Cytotoxic Activity (%) E/T Ratio 10: 0%
[2]; [19]
  cytotoxic activity after continuous culture (in words): continuous culture of CTLs having an antigen-specific cytotoxic activity can be carried out
[2]; [20]
  cytotoxic activity after continuous culture (in words): maintaining an antigen-specific cytotoxic activity
[3]; [21]
  Expansion Ratio: × 240
[3]; [22]
  Expansion Ratio: × 353
[3]; Example 2-7, sample 10 μg/ml during CTL induction +, during expansion +
  Expansion Ratio: × 243
[3]; Example 2-7, sample 10 μg/ml during CTL induction +, during expansion −
  Expansion Ratio: × 253
[4]
  difference in the cytotoxic activity by the presence or absence of the addition during the induction: almost no difference
[5]; MAGE3-specific CTLs, sample 10 μg/ml during CTL induction and during expansion
  cytotoxic activity after expansion for 14 days (in words): specific, high cytotoxic activity
[5]; peptide addition +, E/T ratio 3
  Cytotoxic Activity (%): 65.3%
[5]; peptide addition +, E/T ratio 9
  Cytotoxic Activity (%): 104.8%
[5]; peptide addition −, E/T ratio 3
  Cytotoxic Activity (%): 2.6%
[5]; peptide addition −, E/T ratio 9
  Cytotoxic Activity (%): 3.7%
[6]
  Expansion Ratio: × 433

## sodium chondroitin sulfate B
[1]; [7]
  Cytotoxic Activity (%) E/T Ratio 3: 57.8%
  Cytotoxic Activity (%) E/T Ratio 10: 98.2%
[1]; [8]
  Cytotoxic Activity (%) E/T Ratio 3: 1.0%
  Cytotoxic Activity (%) E/T Ratio 10: 10.7%
[1]; [9]
  Cytotoxic Activity (%) E/T Ratio 1: 15.2%
  Cytotoxic Activity (%) E/T Ratio 3: 27.2%
  Cytotoxic Activity (%) E/T Ratio 10: 48.1%
  Cytotoxic Activity (%) E/T Ratio 30: 76.2%
[1]; [10]
  Cytotoxic Activity (%) E/T Ratio 1: 3.9%
  Cytotoxic Activity (%) E/T Ratio 3: 4.4%
  Cytotoxic Activity (%) E/T Ratio 10: 8.3%
  Cytotoxic Activity (%) E/T Ratio 30: 11.8%
[2]; [23]
  Cytotoxic Activity (%) E/T Ratio 2.5: 28.1%
  Cytotoxic Activity (%) E/T Ratio 5: 38.1%
  Cytotoxic Activity (%) E/T Ratio 10: 60.7%
[2]; [24]
  Cytotoxic Activity (%) E/T Ratio 2.5: 0%
  Cytotoxic Activity (%) E/T Ratio 5: 0%
  Cytotoxic Activity (%) E/T Ratio 10: 0.8%
[2]; [17]
  Cytotoxic Activity (%) E/T Ratio 10: 24.0%
[2]; [18]
  Cytotoxic Activity (%) E/T Ratio 10: 4.6%
[2]; [19]
  cytotoxic activity after continuous culture (in words): effects for maintaining cytotoxic activity
[2]; [20]
  cytotoxic activity after continuous culture (in words): maintaining an antigen-specific cytotoxic activity
[3]; [21]
  Expansion Ratio: × 178
[3]; [22]
  Expansion Ratio: × 383

## sodium salt of sulfated fucose
[1]; [7]
  Cytotoxic Activity (%) E/T Ratio 10: 70.2%
[1]; [8]
  Cytotoxic Activity (%) E/T Ratio 10: 23.3%
[1]; [9]
  Cytotoxic Activity (%) E/T Ratio 10: 32.5%
  Cytotoxic Activity (%) E/T Ratio 30: 64.9%
[1]; [10]
  Cytotoxic Activity (%) E/T Ratio 10: 0%
  Cytotoxic Activity (%) E/T Ratio 30: 1.3%
[2]; [23]
  Cytotoxic Activity (%) E/T Ratio 2.5: 17.6%
  Cytotoxic Activity (%) E/T Ratio 5: 36.6%
  Cytotoxic Activity (%) E/T Ratio 10: 55.3%
[2]; [24]
  Cytotoxic Activity (%) E/T Ratio 2.5: 0%
  Cytotoxic Activity (%) E/T Ratio 5: 0%
  Cytotoxic Activity (%) E/T Ratio 10: 0.2%
[2]; [17]
  Cytotoxic Activity (%) E/T Ratio 1: 8.9%
  Cytotoxic Activity (%) E/T Ratio 3: 12.6%
  Cytotoxic Activity (%) E/T Ratio 10: 26.4%
[2]; [18]
  Cytotoxic Activity (%) E/T Ratio 1: 0%
  Cytotoxic Activity (%) E/T Ratio 3: 0.4%
  Cytotoxic Activity (%) E/T Ratio 10: 3.3%
[2]; [19]
  cytotoxic activity after continuous culture (in words): effects for maintaining cytotoxic activity
[2]; [20]
  cytotoxic activity after continuous culture (in words): maintaining an antigen-specific cytotoxic activity
[3]; [21]
  Expansion Ratio: × 240
[3]; [22]
  Expansion Ratio: × 448

## swellable alginic acid
[1]; [7]
  Cytotoxic Activity (%) E/T Ratio 3: 65.0%
  Cytotoxic Activity (%) E/T Ratio 10: 101.6%
[1]; [8]
  Cytotoxic Activity (%) E/T Ratio 3: 14.3%
  Cytotoxic Activity (%) E/T Ratio 10: 21.3%
[1]; [9]
  Cytotoxic Activity (%) E/T Ratio 1: 15.4%
  Cytotoxic Activity (%) E/T Ratio 3: 22.0%
  Cytotoxic Activity (%) E/T Ratio 10: 47.8%
  Cytotoxic Activity (%) E/T Ratio 30: 81.7%
[1]; [10]
  Cytotoxic Activity (%) E/T Ratio 1: 0.1%
  Cytotoxic Activity (%) E/T Ratio 3: 0%
  Cytotoxic Activity (%) E/T Ratio 10: 2.1%
  Cytotoxic Activity (%) E/T Ratio 30: 10.6%
[2]; [15]
  Cytotoxic Activity (%) E/T Ratio 1: 39.8%
  Cytotoxic Activity (%) E/T Ratio 3: 75.3%
  Cytotoxic Activity (%) E/T Ratio 10: 86.9%
[2]; [16]
  Cytotoxic Activity (%) E/T Ratio 1: 12.5%
  Cytotoxic Activity (%) E/T Ratio 3: 26.5%
  Cytotoxic Activity (%) E/T Ratio 10: 22.2%
[2]; [17]
  Cytotoxic Activity (%) E/T Ratio 1: 12.6%
  Cytotoxic Activity (%) E/T Ratio 3: 18.7%
  Cytotoxic Activity (%) E/T Ratio 10: 35.6%
[2]; [18]
  Cytotoxic Activity (%) E/T Ratio 1: 3.3%
  Cytotoxic Activity (%) E/T Ratio 3: 1.3%
  Cytotoxic Activity (%) E/T Ratio 10: 8.8%
[2]; [20]
  cytotoxic activity after continuous culture (in words): maintaining an antigen-specific cytotoxic activity
[3]; [21]
  Expansion Ratio: × 176
[3]; [22]
  Expansion Ratio: × 378
